One compound from patent US20040121954A1, “Poly(dipeptide) as a drug carrier” (priority 1999, published 2004) can be followed below.

The test system of the assay is PC3 (prostate); KB (nasopharyngeal); MDA MB 231 (breast). Description: In vitro cell culture assay (MTT), cell inhibition in three human tumor cell lines. The settings on record: 72 hours.

`CC(=O)O[C@H]1C(=O)[C@@]2(C)[C@H]([C@H](OC(=O)c3ccccc3)[C@]3(O)C[C@H](OC(=O)[C@H](O)[C@@H](NC(=O)c4ccccc4)c4ccccc4)C(C)=C1C3(C)C)[C@]1(OC(C)=O)CO[C@@H]1C[C@@H]2O` [paclitaxel]: the “cell inhibition at lower concentrations” value is on record as “more pronounced”.
